Experimental data from PubChem BioAssay AID248 (DTP/NCI, 2004).
Several values for one entry are separate records, joined by “and”; a condition that tells them apart may be missing. Identical values can stand only once. Toxic doses and inconclusive results are not listed. No stated cut-off is given here; in the data, active means T/C of 150% or more; inactive means T/C below 125%.

Test system: L1210 leukemia ip in BDF1 mice, survival T/C
Test: NCI In Vivo Anticancer Drug Screen. Data for tumor model L1210 Leukemia (intraperitoneal) in B6D2F1 (BDF1) mice
Conditions: endpoint: mean survival time, higher = longer survival
Method in brief: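 Transplantable tumor model; survival measured in treated vs vehicle control mice. Value = treated/control.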

[1] = dose: 100.0 mg/kg/injection, schedule: Q01DX009 (ip), vehicle: saline with Tween-80
[2] = dose: 200.0 mg/kg/injection, schedule: Q01DX009 (ip), vehicle: saline with Tween-80
[3] = dose: 100.0 mg/kg/injection, schedule: Q04DX003 (ip), vehicle: saline with Tween-80
[4] = dose: 200.0 mg/kg/injection, schedule: Q04DX003 (ip), vehicle: saline with Tween-80
[5] = dose: 400.0 mg/kg/injection, schedule: Q04DX003 (ip), vehicle: saline with Tween-80
[6] = dose: 100.0 mg/kg/injection, schedule: Q01DX001 (ip), vehicle: saline
[7] = dose: 200.0 mg/kg/injection, schedule: Q01DX001 (ip), vehicle: saline
[8] = dose: 400.0 mg/kg/injection, schedule: Q01DX001 (ip), vehicle: saline

Measured: T/C

CC(C)NCC1CCCCO1 (stereo not drawn)
inactive: dose: 55.0 mg/kg/injection, schedule: Q01DX Z (ip), vehicle: methylcellulose (MC) 91 % of control | dose: 83.0 mg/kg/injection, schedule: Q01DX Z (ip), vehicle: methylcellulose (MC) 88 % of control | dose: 125.0 mg/kg/injection, schedule: Q01DX Z (ip), vehicle: methylcellulose (MC) 100 % of control

Cc1ccnc(NC(=O)NC2CCCCC2)c1
inactive: dose: 100.0 mg/kg/injection, schedule: Q04DX002 (ip), vehicle: Klucel (hydroxypropylcellulose) (HPC) 96 % of control | dose: 200.0 mg/kg/injection, schedule: Q04DX002 (ip), vehicle: Klucel (hydroxypropylcellulose) (HPC) 101 % of control | dose: 400.0 mg/kg/injection, schedule: Q04DX002 (ip), vehicle: Klucel (hydroxypropylcellulose) (HPC) 96 % of control

COc1ccc(-c2sc(/N=C/c3cc(OC)c(OC)c(OC)c3)c(C#N)c2C)cc1OC
inactive: [1] 98 % of control and 103 % of control | dose: 100.0 mg/kg/injection, schedule: Q04DX002 (ip), vehicle: saline with Tween-80 93 % of control and 88 % of control | [2] 100 % of control and 88 % of control | dose: 200.0 mg/kg/injection, schedule: Q04DX002 (ip), vehicle: saline with Tween-80 93 % of control | dose: 400.0 mg/kg/injection, schedule: Q01DX009 (ip), vehicle: saline with Tween-80 92 % of control and 87 % of control | dose: 400.0 mg/kg/injection, schedule: Q04DX002 (ip), vehicle: saline with Tween-80 94 % of control and 104 % of control

CC1CC(C)CC(NC(=O)NCCCl)C1 (stereo not drawn)
inactive: dose: 20.0 mg/kg/injection, schedule: Q01DX009 (ip), vehicle: Klucel (hydroxypropylcellulose) (HPC) 106 % of control | dose: 40.0 mg/kg/injection, schedule: Q01DX009 (ip), vehicle: Klucel (hydroxypropylcellulose) (HPC) 95 % of control | dose: 80.0 mg/kg/injection, schedule: Q01DX009 (ip), vehicle: Klucel (hydroxypropylcellulose) (HPC) 93 % of control | dose: 100.0 mg/kg/injection, schedule: Q04DX003 (ip), vehicle: Klucel (hydroxypropylcellulose) (HPC) 103 % of control | dose: 200.0 mg/kg/injection, schedule: Q01DX009 (ip), vehicle: Klucel (hydroxypropylcellulose) (HPC) 87 % of control | dose: 200.0 mg/kg/injection, schedule: Q04DX003 (ip), vehicle: Klucel (hydroxypropylcellulose) (HPC) 94 % of control | dose: 400.0 mg/kg/injection, schedule: Q04DX003 (ip), vehicle: Klucel (hydroxypropylcellulose) (HPC) 92 % of control

COC1CCC(OC2CC(C3(C)CCC4(CC(O)C(C)C(C(C)/C=C(\C)C(=O)C(C)CC(C)C(=O)O)O4)O3)OC3(OC(C4OC(O)(CO)C(C)CC4C)CC3C)C2C)OC1C (stereo not drawn)
inactive: dose: 0.93 mg/kg/injection, schedule: Q01DX001 (ip), vehicle: saline 93 % of control | dose: 1.87 mg/kg/injection, schedule: Q01DX001 (ip), vehicle: saline 90 % of control | dose: 28.0 micrograms/kg/injection, schedule: Q01DX009 (ip), vehicle: saline 94 % of control | dose: 57.0 micrograms/kg/injection, schedule: Q01DX009 (ip), vehicle: saline 88 % of control | dose: 57.0 micrograms/kg/injection, schedule: Q04DX003 (ip), vehicle: saline 94 % of control | dose: 115.0 micrograms/kg/injection, schedule: Q01DX009 (ip), vehicle: saline 105 % of control | dose: 115.0 micrograms/kg/injection, schedule: Q04DX003 (ip), vehicle: saline 91 % of control | dose: 230.0 micrograms/kg/injection, schedule: Q04DX003 (ip), vehicle: saline 89 % of control

CCCCCCCCCC(O)CCCC (stereo not drawn)
inactive: dose: 25.0 mg/kg/injection, schedule: Q01DX009 (ip), vehicle: saline with Tween-80 108 % of control | dose: 50.0 mg/kg/injection, schedule: Q01DX009 (ip), vehicle: saline with Tween-80 97 % of control | [1] 94 % of control and 98 % of control | [3] 98 % of control | [4] 98 % of control | [5] 96 % of control

Nc1nc2nc[nH]c2c(N)c1Br (tested in a mixture with another compound)
inactive: dose: 50.0 mg/kg/injection, schedule: Q01DX009 (ip), vehicle: saline 95 % of control | dose: 50.0 mg/kg/injection, schedule: Q04DX003 (ip), vehicle: saline 96 % of control | [6] 100 % of control | dose: 100.0 mg/kg/injection, schedule: Q01DX009 (ip), vehicle: saline 92 % of control | dose: 100.0 mg/kg/injection, schedule: Q04DX003 (ip), vehicle: saline 94 % of control | [7] 97 % of control | dose: 200.0 mg/kg/injection, schedule: Q01DX009 (ip), vehicle: saline 114 % of control | dose: 200.0 mg/kg/injection, schedule: Q04DX003 (ip), vehicle: saline 105 % of control

CNC(=O)Oc1cccc(N(C)C)c1
inactive: dose: 9.5 mg/kg/injection, schedule: Q01DX001 (ip), vehicle: other 100 % of control | dose: 19.0 mg/kg/injection, schedule: Q01DX001 (ip), vehicle: other 98 % of control

NC(=O)c1nccnc1Cl
inactive: [1] 91 % of control | [3] 100 % of control | [2] 98 % of control | [4] 97 % of control | [5] 110 % of control

N#Cc1cn(C2OC(CO)C(O)C2O)c2ncn(O)c(=N)c12 (stereo not drawn)
inactive: dose: 0.19 mg/kg/injection, schedule: Q01DX005 (ip), vehicle: saline 112 % of control | dose: 0.19 mg/kg/injection, schedule: Q01DX009 (ip), vehicle: saline 107 % of control | dose: 0.39 mg/kg/injection, schedule: Q01DX005 (ip), vehicle: saline 96 % of control | dose: 0.39 mg/kg/injection, schedule: Q01DX009 (ip), vehicle: saline 97 % of control | dose: 0.78 mg/kg/injection, schedule: Q01DX005 (ip), vehicle: saline 100 % of control | dose: 0.78 mg/kg/injection, schedule: Q01DX009 (ip), vehicle: saline 100 % of control | dose: 1.56 mg/kg/injection, schedule: Q01DX005 (ip), vehicle: saline 94 % of control

CCOC(CCC#N)c1ccccc1 (stereo not drawn)
inactive: [3] 95 % of control | dose: 125.0 mg/kg/injection, schedule: Q01DX009 (ip), vehicle: saline with Tween-80 113 % of control | [4] 98 % of control | dose: 235.0 mg/kg/injection, schedule: Q01DX009 (ip), vehicle: saline with Tween-80 96 % of control | [5] 92 % of control

CCCCCCC[n+]1ccc(C#N)cc1
inactive: dose: 75.0 mg/kg/injection, schedule: Q01DX001 (ip), vehicle: saline 103 % of control

CC(C)(CO)C(O)C(=O)NCCC(=O)c1ccccc1 (stereo not drawn)
inactive: [6] 103 % of control | [7] 92 % of control | [8] 103 % of control

CC1=CC(=O)C=CC1=Nc1cc(Cl)c(O)c(Cl)c1
inactive: dose: 50.0 mg/kg/injection, schedule: Q01DX001 (ip), vehicle: saline 101 % of control | [6] 95 % of control

Cc1ccc(N=Nc2c(O)ccc3ccccc23)c([N+](=O)[O-])c1
inactive: dose: 100.0 mg/kg/injection, schedule: Q01DX001 (ip), vehicle: other 96 % of control | dose: 100.0 mg/kg/injection, schedule: Q04DX003 (ip), vehicle: other 95 % of control | dose: 200.0 mg/kg/injection, schedule: Q01DX001 (ip), vehicle: other 95 % of control | dose: 200.0 mg/kg/injection, schedule: Q04DX003 (ip), vehicle: other 91 % of control | dose: 400.0 mg/kg/injection, schedule: Q01DX001 (ip), vehicle: other 96 % of control | dose: 400.0 mg/kg/injection, schedule: Q04DX003 (ip), vehicle: other 93 % of control

NNc1ccc(CC(=O)O)cc1
inactive: [6] 98 % of control | [7] 93 % of control | [8] 98 % of control

O=C1C(=O)c2c(nc3ccccn23)-c2ccccc21
inactive: dose: 100.0 mg/kg/injection, schedule: Q01DX001 (ip), vehicle: Klucel (hydroxypropylcellulose) (HPC) 103 % of control | dose: 200.0 mg/kg/injection, schedule: Q01DX001 (ip), vehicle: Klucel (hydroxypropylcellulose) (HPC) 94 % of control | dose: 400.0 mg/kg/injection, schedule: Q01DX001 (ip), vehicle: Klucel (hydroxypropylcellulose) (HPC) 105 % of control
